Where “and” joins values, the source holds several entries; their conditions need not be identical. Equal entries are not always repeated. ± gives the expanded uncertainty stated by the source.
Settings: Fluid (supercritical or subcritical phases), Coaxial cylinder method

CCCCCC [hexane]
thermal conductivity
Settings | 510.36 K | 511.55 K
900 kPa | – | 0.03854 ± 0.002 W/m/K
1000 kPa | – | 0.03823 ± 0.002 W/m/K
1100 kPa | – | 0.03832 ± 0.002 W/m/K
1200 kPa | – | 0.03859 ± 0.002 W/m/K
1300 kPa | – | 0.03877 ± 0.002 W/m/K
1400 kPa | – | 0.03895 ± 0.002 W/m/K
1500 kPa | – | 0.03914 ± 0.002 W/m/K
1600 kPa | – | 0.03932 ± 0.002 W/m/K
1700 kPa | – | 0.0397 ± 0.002 W/m/K
1800 kPa | – | 0.04008 ± 0.0021 W/m/K
1900 kPa | – | 0.04047 ± 0.0021 W/m/K
2000 kPa | – | 0.04087 ± 0.0021 W/m/K
2100 kPa | – | 0.04127 ± 0.0021 W/m/K
2200 kPa | – | 0.0419 ± 0.0021 W/m/K
2300 kPa | – | 0.04254 ± 0.0022 W/m/K
2400 kPa | – | 0.04342 ± 0.0022 W/m/K
2462 kPa | – | 0.04388 ± 0.0022 W/m/K
2466 kPa | – | 0.04388 ± 0.0022 W/m/K
2500 kPa | – | 0.04434 ± 0.0022 W/m/K
2600 kPa | – | 0.0453 ± 0.0023 W/m/K
2700 kPa | – | 0.04656 ± 0.0023 W/m/K
2800 kPa | – | 0.04846 ± 0.0024 W/m/K
2900 kPa | – | 0.05075 ± 0.0025 W/m/K
2973 kPa | – | 0.05292 ± 0.0026 W/m/K
2988 kPa | – | 0.05356 ± 0.0026 W/m/K
3050 kPa | – | 0.05558 ± 0.0027 W/m/K
3065 kPa | – | 0.05634 ± 0.0027 W/m/K
3084 kPa | – | 0.05785 ± 0.0028 W/m/K
3096 kPa | – | 0.05908 ± 0.0029 W/m/K
3103 kPa | – | 0.05968 ± 0.0029 W/m/K
3110 kPa | – | 0.06064 ± 0.003 W/m/K
3116 kPa | – | 0.06128 ± 0.003 W/m/K
3130 kPa | – | 0.06341 ± 0.0032 W/m/K
3140 kPa | – | 0.06508 ± 0.0033 W/m/K
3145 kPa | – | 0.06587 ± 0.0033 W/m/K
3150 kPa | – | 0.06678 ± 0.0033 W/m/K
3155 kPa | – | 0.06787 ± 0.0034 W/m/K
3160 kPa | – | 0.06879 ± 0.0034 W/m/K
3165 kPa | – | 0.0699 ± 0.0034 W/m/K
3168 kPa | – | 0.07058 ± 0.0034 W/m/K
3170 kPa | – | 0.07104 ± 0.0034 W/m/K
3173 kPa | – | 0.0718 ± 0.0034 W/m/K
3175 kPa | – | 0.07228 ± 0.0035 W/m/K
3180 kPa | – | 0.07336 ± 0.0035 W/m/K
3183 kPa | – | 0.07404 ± 0.0035 W/m/K
3185 kPa | – | 0.07447 ± 0.0035 W/m/K
3187 kPa | – | 0.07504 ± 0.0035 W/m/K
3190 kPa | – | 0.07571 ± 0.0035 W/m/K
3192 kPa | – | 0.07616 ± 0.0035 W/m/K
3193 kPa | – | 0.07629 ± 0.0036 W/m/K
3195 kPa | – | 0.07668 ± 0.0036 W/m/K
3200 kPa | – | 0.07761 ± 0.0036 W/m/K
3205 kPa | – | 0.07821 ± 0.0037 W/m/K
3212 kPa | – | 0.07869 ± 0.0039 W/m/K
3220 kPa | – | 0.07869 ± 0.0039 W/m/K
3225 kPa | – | 0.07855 ± 0.0039 W/m/K
3230 kPa | 0.07155 ± 0.0034 W/m/K | 0.07767 ± 0.0038 W/m/K
3232 kPa | 0.07138 ± 0.0034 W/m/K | –
3234 kPa | 0.07128 ± 0.0034 W/m/K | –
3235 kPa | – | 0.07701 ± 0.0037 W/m/K
3236 kPa | 0.07122 ± 0.0033 W/m/K | –
3238 kPa | 0.07122 ± 0.0033 W/m/K | –
3240 kPa | – | 0.07636 ± 0.0037 W/m/K
3242 kPa | 0.07105 ± 0.0033 W/m/K | –
3245 kPa | 0.07105 ± 0.0033 W/m/K | 0.07571 ± 0.0036 W/m/K
3248 kPa | 0.07105 ± 0.0033 W/m/K | –
3250 kPa | 0.07072 ± 0.0033 W/m/K | 0.07508 ± 0.0035 W/m/K
3252 kPa | 0.07072 ± 0.0033 W/m/K | –
3254 kPa | 0.07072 ± 0.0033 W/m/K | –
3255 kPa | – | 0.07386 ± 0.0034 W/m/K
3256 kPa | 0.07039 ± 0.0033 W/m/K | –
3258 kPa | 0.07039 ± 0.0033 W/m/K | –
3260 kPa | 0.07039 ± 0.0033 W/m/K | 0.07266 ± 0.0034 W/m/K
3265 kPa | 0.0704 ± 0.0033 W/m/K | 0.07151 ± 0.0033 W/m/K
3270 kPa | 0.07008 ± 0.0033 W/m/K | 0.07151 ± 0.0033 W/m/K
3275 kPa | – | 0.07209 ± 0.0034 W/m/K
3280 kPa | 0.06975 ± 0.0033 W/m/K | 0.07209 ± 0.0034 W/m/K
3285 kPa | – | 0.07209 ± 0.0034 W/m/K
3290 kPa | 0.0696 ± 0.0033 W/m/K | 0.07267 ± 0.0034 W/m/K
3295 kPa | – | 0.07267 ± 0.0034 W/m/K
3300 kPa | 0.06944 ± 0.0033 W/m/K | 0.07151 ± 0.0033 W/m/K
3305 kPa | – | 0.07151 ± 0.0033 W/m/K
3310 kPa | 0.06944 ± 0.0033 W/m/K | 0.07151 ± 0.0033 W/m/K
3315 kPa | – | 0.07095 ± 0.0033 W/m/K
3320 kPa | 0.06912 ± 0.0032 W/m/K | –
3325 kPa | – | 0.07095 ± 0.0033 W/m/K
3330 kPa | – | 0.07095 ± 0.0033 W/m/K
3335 kPa | – | 0.07144 ± 0.0033 W/m/K
3340 kPa | 0.06881 ± 0.0032 W/m/K | 0.07144 ± 0.0033 W/m/K
3345 kPa | – | 0.07144 ± 0.0033 W/m/K
3350 kPa | 0.0685 ± 0.0032 W/m/K | 0.07144 ± 0.0033 W/m/K
3360 kPa | 0.0685 ± 0.0032 W/m/K | 0.07088 ± 0.0033 W/m/K
3365 kPa | – | 0.07088 ± 0.0033 W/m/K
3370 kPa | 0.0685 ± 0.0032 W/m/K | 0.07033 ± 0.0033 W/m/K
3375 kPa | – | 0.07033 ± 0.0033 W/m/K
3380 kPa | 0.0685 ± 0.0032 W/m/K | –
3385 kPa | – | 0.07033 ± 0.0033 W/m/K
3392 kPa | 0.06834 ± 0.0032 W/m/K | –
3395 kPa | – | 0.07033 ± 0.0033 W/m/K
3400 kPa | – | 0.07033 ± 0.0033 W/m/K
3410 kPa | – | 0.07088 ± 0.0033 W/m/K
3450 kPa | 0.06819 ± 0.0032 W/m/K | 0.07081 ± 0.0033 W/m/K
3455 kPa | – | 0.07081 ± 0.0033 W/m/K
3460 kPa | – | 0.07062 ± 0.0033 W/m/K and 0.07064 ± 0.0033 W/m/K
3470 kPa | – | 0.07062 ± 0.0033 W/m/K
3480 kPa | – | 0.07051 ± 0.0033 W/m/K
3490 kPa | – | 0.07054 ± 0.0033 W/m/K
3500 kPa | 0.0685 ± 0.0032 W/m/K | 0.07026 ± 0.0033 W/m/K
3520 kPa | 0.0686 ± 0.0032 W/m/K | –
3540 kPa | 0.0686 ± 0.0032 W/m/K | –
3550 kPa | – | 0.0701 ± 0.0033 W/m/K
3560 kPa | 0.0686 ± 0.0032 W/m/K | –
3580 kPa | 0.0686 ± 0.0032 W/m/K | –
3600 kPa | 0.06851 ± 0.0032 W/m/K | 0.07 ± 0.0033 W/m/K
3620 kPa | 0.06851 ± 0.0032 W/m/K | –
3640 kPa | 0.06854 ± 0.0032 W/m/K | –
3650 kPa | 0.06857 ± 0.0032 W/m/K | 0.06992 ± 0.0033 W/m/K
3670 kPa | 0.0686 ± 0.0032 W/m/K | –
3680 kPa | 0.06861 ± 0.0032 W/m/K | –
3700 kPa | 0.06864 ± 0.0032 W/m/K | 0.06992 ± 0.0033 W/m/K
3720 kPa | 0.06873 ± 0.0032 W/m/K | –
3740 kPa | 0.06883 ± 0.0032 W/m/K | –
3750 kPa | 0.06886 ± 0.0032 W/m/K | 0.06969 ± 0.0033 W/m/K
3800 kPa | 0.06913 ± 0.0032 W/m/K | 0.06964 ± 0.0033 W/m/K
3810 kPa | 0.06917 ± 0.0032 W/m/K | –
3820 kPa | 0.06922 ± 0.0032 W/m/K | –
3830 kPa | 0.06922 ± 0.0032 W/m/K | –
3840 kPa | 0.06919 ± 0.0032 W/m/K | –
3850 kPa | – | 0.06975 ± 0.0033 W/m/K
3860 kPa | 0.06928 ± 0.0032 W/m/K | –
3900 kPa | – | 0.06992 ± 0.0033 W/m/K
3950 kPa | – | 0.06992 ± 0.0033 W/m/K
3970 kPa | 0.06973 ± 0.0033 W/m/K | –
3980 kPa | 0.06964 ± 0.0033 W/m/K | –
4000 kPa | – | 0.06992 ± 0.0033 W/m/K
4010 kPa | 0.06977 ± 0.0033 W/m/K | –
4100 kPa | – | 0.07009 ± 0.0033 W/m/K
4150 kPa | – | 0.07009 ± 0.0033 W/m/K
4300 kPa | – | 0.0702 ± 0.0033 W/m/K
4400 kPa | – | 0.07048 ± 0.0033 W/m/K
4500 kPa | – | 0.07048 ± 0.0033 W/m/K
4600 kPa | – | 0.07077 ± 0.0033 W/m/K
4700 kPa | – | 0.07105 ± 0.0033 W/m/K
4800 kPa | – | 0.07105 ± 0.0033 W/m/K

Source: the NIST ThermoML archive (doi:10.1016/j.fluid.2018.10.006)
